Data set [1] has as its system mice (tonic, extensor spasm of the lower limbs). Briefly: Maximum electroshock (MES), anticonvulsive activity. The class given is in vivo, CFLP (LATI) mice. The conditions noted are these: Mus musculus, po, 1 h; 20 mg/kg p.o., one hour after administration; corneal electrode 20 mA, 0.2 sec; absence of tonic extensor spasm = protection. The method, then: The pharmaceutical activity of the new compounds according to the invention was tested by conventional animal tests. Tests were performed on CFLP (LATI) mice of both sexes weighing 18 to 22 g. each, in groups of 10. Test compounds were suspended in a 5% aqueous "Tween 80" solution and the suspension was administered orally, through a probe. When testing anticonvulsive activity 20 mg./kg. doses, while in the tests concerning neurotoxic activity 80 mg/kg. doses were employed. The induced effect was measured one hour after administration by the following methods: (a) Maximum electroshock (MES): According to the method of E. A. Swinyard et al. [J. Pharmacol. 106, 319 (1952)] test animals were shocked by a corneal electrode (20 mA, 0.2 sec.). On the stimulation 100% of the control animals reacted by a tonic, extensor spasm of the lower limbs. Absence of this phenomena was considered a protection due to the treatment.

The subject of data set [2] is mice (pentetrazole-induced clonic and tonic, extensor spasm). Briefly: Inhibition of spasm induced by pentetrazole (PTT). As to conditions: Mus musculus, po, 1 h, 20 mg/kg p.o., 125 mg/kg pentetrazole s.c., one hour. The class given is in vivo, CFLP (LATI) mice. As for the experimental part:
The pharmaceutical activity of the new compounds according to the invention was tested by conventional animal tests. Tests were performed on CFLP (LATI) mice of both sexes weighing 18 to 22 g. each, in groups of 10. Test compounds were suspended in a 5% aqueous "Tween 80" solution and the suspension was administered orally, through a probe. When testing anticonvulsive activity 20 mg./kg. doses, while in the tests concerning neurotoxic activity 80 mg/kg. doses were employed. The induced effect was measured one hour after administration by the following methods: (b) inhibition of spasm induced by pentetrazole (PTT) According to the method of Cr. N. Everett and R. K. Richards [J. Pharmacol. Exp. Therap. 81, 402 (1944)] 125 mg./kg. of pentatrazole (pentamethylene tetrazole) were administrated to the animals subcutaneously. One hour after administration the animals were observed. Absence of the clonic spasm (Kl) and the tonic, extensor spasm of lower limbs (TE) was considered a protection due to the administration of test compounds.

Data set [3] deals with mice (muscle coordination). Briefly: Neurotoxic activity: muscle coordination (RR) on rotating rod. Type of data set: in vivo, CFLP (LATI) mice. As to conditions: 80 mg/kg p.o., one hour after administration; animals falling from rotating rod within 120 seconds, percentage of control animals. As for the experimental part: (§1) The pharmaceutical activity of the new compounds according to the invention was tested by conventional animal tests. Tests were performed on CFLP (LATI) mice of both sexes weighing 18 to 22 g. each, in groups of 10. Test compounds were suspended in a 5% aqueous "Tween 80" solution and the suspension was administered orally, through a probe. When testing anticonvulsive activity 20 mg./kg. doses, while in the tests concerning neurotoxic activity 80 mg/kg. doses were employed. The induced effect was measured one hour after administration by the following methods:
Muscle coordination (RR) on mice
Change of the coordinated muscular movement was tested according to W. J. Kinnard and C. F. Carr [Brit. J. Pharmacol, 121, 354 (1957)], on a rotating rod (diameter: 20 mm., frequency: 12/min.). Normal trained animals are able to remain on the rotating rod for about 120 seconds.

For data set [4], the system named is mice. Briefly: Acute toxicity (LD50). The class given is in vivo. The conditions noted are these: p.o., single doses, evaluation after 14 days, probit analysis. As for the experimental part:
as §1
Toxicity of the compounds was examined by administration of various single doses. Evaluation was made 14 days after administration. The LD50 -values were calculated on the basis of the number of animals that died in 14 days by probite analysis, by means of a TPA/101 computer.

[5] abbreviates: absence of clonic spasm, read-out: PTT Cl.
[6] abbreviates: absence of tonic, extensor spasm of lower limbs, read-out: PTT TE.

This note sets out measurements from patent US4371534A, “N4-Substituted tetrahydro-1,2,4-oxadiazin-5-one derivatives having anticonvulsive activity and pharmaceutical compositions containing them” (Richter Gedeon Vegyeszeti Gyar RT., priority 1980, dated 1983).

Where two headings read alike, the source gives them in different places.

In the case of `CCC1(c2ccccc2)NC(=O)N(C)C1=O` (centres unmarked) [3-methyl-5-ethyl-5-phenylhydantoine, reference compound], the figures for the responders at 20 mg/kg in data set [1], in data set [2] (setting [5]) and in data set [2] (setting [6]) were 10%, 0% and 50%, respectively. For the same molecule, in data set [3], the “RR (muscle incoordination)” value came out at 50%.
Regarding `CCN1C(=O)CON(C(C)=O)C1c1ccccc1` (centres unmarked) [Example 4, 2-Acetyl-3-phenyl-4-ethyl-tetrahydro-1,2,4-oxadiazin-5-one], the results for the responders at 20 mg/kg in data set [1], in data set [2] (setting [5]) and in data set [2] (setting [6]) were 0%, 0% and 20%, respectively. The “RR (muscle incoordination)” value in data set [3] is 20%.
With `CC(=O)N1OCC(=O)N(CO)C1c1ccccc1` (centres unmarked) [Example 5, 2-Acetyl-3-phenyl-4-hydroxymethyl-tetrahydro-1,2,4-oxadiazin-5-one], the responders at 20 mg/kg in data set [1] amounted to 60%; in data set [2] (setting [5]) it was 0%; in data set [2] (setting [6]), 40%. For the same molecule, the “RR (muscle incoordination)” value in data set [3] amounted to 20%.
Take `CC(=O)OCN1C(=O)CON(C(C)=O)C1c1ccccc1` (centres unmarked) [Example 6, 2-Acetyl-3-phenyl-4-acetoxymethyl-tetrahydro-1,2,4-oxadiazin-5-one]: the responders at 20 mg/kg in data set [1] was found to be 70%; in data set [2] (setting [5]), 0%; in data set [2] (setting [6]), 60%. The “RR (muscle incoordination)” value in data set [3] stood at 40%.
As to `CC(=O)N1OCC(=O)N(CCl)C1c1ccccc1` (centres unmarked) [Example 7, 2-Acetyl-3-phenyl-4-chloromethyl-tetrahydro-1,2,4-oxadiazin-5-one], the responders at 20 mg/kg was 40% in data set [1], 0% in data set [2] (setting [5]) and 0% in data set [2] (setting [6]). The “RR (muscle incoordination)” value in data set [3] is recorded as 40%.
As for `CC(=O)N1OCC(=O)N(C)C1c1ccccc1` (centres unmarked) [Example 10], the results for the responders at 20 mg/kg in data set [1], in data set [2] (setting [5]) and in data set [2] (setting [6]) were 40%, 0% and 20%, respectively. Besides, the “RR (muscle incoordination)” value in data set [3] was 20%.
Consider `CCCCCCN1C(=O)CON(C(C)=O)C1c1ccccc1` (centres unmarked) [Example 14], for which the responders at 20 mg/kg in data set [1] is 0%; in data set [2] (setting [5]), 0%; in data set [2] (setting [6]), 40%. The “RR (muscle incoordination)” value in data set [3] was 0%.
In the case of `CC(=O)N1OCC(=O)N(COC(=O)c2ccccc2)C1c1ccccc1` (centres unmarked) [Example 18], the responders at 20 mg/kg in data set [1] is 40%; in data set [2] (setting [5]), 0%; in data set [2] (setting [6]), 70%. The “RR (muscle incoordination)” value in data set [3] amounted to 40%.
In the case of `COc1cc(C(=O)OCN2C(=O)CON(C(C)=O)C2c2ccccc2)cc(OC)c1OC` (centres unmarked) [Example 19], the results for the responders at 20 mg/kg in data set [1], in data set [2] (setting [5]) and in data set [2] (setting [6]) were 30%, 0% and 0%, respectively. In addition, the “RR (muscle incoordination)” value in data set [3] is 0%.
For `O=C1NC(=O)C(c2ccccc2)(c2ccccc2)N1` [diphenylhydantoine, reference compound], the results for the responders at 20 mg/kg in data set [1], in data set [2] (setting [5]) and in data set [2] (setting [6]) were 90%, 0% and 80%, respectively. Further, the “RR (muscle incoordination)” value in data set [3] is 70%. This molecule yielded an LD50 in data set [4] of 279 mg/kg.
